In article PMC12590467, “Accessory Subunit Regulates Thiyl Radical Formation in Benzylsuccinate Synthase” (Biochemistry, 2025):

Molecular target: T1, BSSαβγ (benzylsuccinate synthase) (Thauera aromatica, UniProt O68395)
T1 construct: gene tutD; BSSαγ mixed 1:2 with BSSβ; (αβγ)2; α 865, β 81, γ 60 residues; resolved α 9-865, β 13-81, γ 5-59; catalytic Cys493; with Benzylsuccinate synthase beta subunit; Benzylsuccinate synthase gamma subunit
Experiment: X-ray crystal structure, […] Å
Format: binding
Conditions: active site; toluene not added, modelled from glovebox atmosphere; also turned over with fumarate; pH 8.5

T1 sequence (O68395 1-864): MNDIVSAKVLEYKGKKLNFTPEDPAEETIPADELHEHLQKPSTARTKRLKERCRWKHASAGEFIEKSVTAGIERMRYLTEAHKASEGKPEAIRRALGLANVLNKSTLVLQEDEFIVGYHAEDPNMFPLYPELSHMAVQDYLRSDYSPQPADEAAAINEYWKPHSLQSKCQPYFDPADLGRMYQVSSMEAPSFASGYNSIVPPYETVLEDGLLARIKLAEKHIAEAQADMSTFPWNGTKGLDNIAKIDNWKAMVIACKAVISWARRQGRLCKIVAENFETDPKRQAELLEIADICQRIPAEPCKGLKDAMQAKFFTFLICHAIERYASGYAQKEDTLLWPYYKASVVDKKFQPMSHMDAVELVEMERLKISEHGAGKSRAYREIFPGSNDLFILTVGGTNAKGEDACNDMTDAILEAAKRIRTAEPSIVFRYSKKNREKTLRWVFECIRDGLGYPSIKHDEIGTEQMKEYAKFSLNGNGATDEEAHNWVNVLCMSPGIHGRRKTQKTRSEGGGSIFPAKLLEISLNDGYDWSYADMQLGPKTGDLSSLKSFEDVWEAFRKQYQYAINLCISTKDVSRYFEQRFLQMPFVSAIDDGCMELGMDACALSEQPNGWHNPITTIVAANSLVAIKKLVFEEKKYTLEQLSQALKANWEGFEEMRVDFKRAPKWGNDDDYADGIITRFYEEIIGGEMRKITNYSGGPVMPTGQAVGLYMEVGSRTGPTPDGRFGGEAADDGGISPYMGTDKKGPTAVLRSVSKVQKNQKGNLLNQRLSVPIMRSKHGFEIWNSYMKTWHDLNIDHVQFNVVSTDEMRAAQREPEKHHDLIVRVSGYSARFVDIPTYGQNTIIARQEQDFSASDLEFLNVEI
T1 sequence (O68396 1-81 partner): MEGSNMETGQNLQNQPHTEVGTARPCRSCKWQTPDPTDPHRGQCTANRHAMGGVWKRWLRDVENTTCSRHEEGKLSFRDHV
T1 sequence (O68394 1-60 partner): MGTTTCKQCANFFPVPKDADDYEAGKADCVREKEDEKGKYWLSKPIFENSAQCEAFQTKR

SMILES: Cc1ccccc1 [toluene]
- X-ray crystal structure, 2.9 Å: In the active site, both toluene and fumarate were modeled and align well
